Measurements taken from PubChem BioAssay AID328 (DTP/NCI, 2004).
Values joined by “and” are separate entries in the source; they are usually repeats but may differ in a detail not shown here. Equal entries are not always repeated. Toxic doses and inconclusive results are not listed.

Tested on: BDF1 mice, P388 leukemia ip, median survival T/C
Test: NCI In Vivo Anticancer Drug Screen. Data for tumor model P388 Leukemia (intraperitoneal) in B6D2F1 (BDF1) mice
Settings: endpoint: median survival time, higher = longer survival
Procedure, shortened: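 Vehicle-dosed animals serve as the reference; survival of compound-dosed, tumour-implanted mice is divided by it.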

[1] = dose: 50.0 mg/kg/injection, schedule: Q01DX009 (ip), vehicle: saline with Tween-80
[2] = dose: 100.0 mg/kg/injection, schedule: Q01DX009 (ip), vehicle: saline with Tween-80
[3] = dose: 1.56 mg/kg/injection, schedule: Q01DX009 (ip), vehicle: saline with Tween-80
[4] = dose: 200.0 mg/kg/injection, schedule: Q01DX009 (ip), vehicle: saline with Tween-80
[5] = dose: 400.0 mg/kg/injection, schedule: Q01DX009 (ip), vehicle: saline with Tween-80
[6] = dose: 2.0 mg/kg/injection, schedule: Q01DX009 (ip), vehicle: saline with Tween-80
[7] = dose: 100.0 mg/kg/injection, schedule: Q04DX003 (ip), vehicle: saline
[8] = dose: 200.0 mg/kg/injection, schedule: Q04DX003 (ip), vehicle: saline
[9] = dose: 400.0 mg/kg/injection, schedule: Q04DX003 (ip), vehicle: saline
[10] = dose: 50.0 mg/kg/injection, schedule: Q01DX009 (ip), vehicle: Klucel (hydroxypropylcellulose) (HPC)

With Nc1ncnc2c1ncn2C1OC(CO)CC1O (stereo unspecified) the T/C (dose: 4.68 mg/kg/injection, schedule: Q01DX009 (ip), vehicle: Klucel (hydroxypropylcellulose) (HPC)) was 108 % of control, the T/C (dose: 9.37 mg/kg/injection, schedule: Q01DX009 (ip), vehicle: Klucel (hydroxypropylcellulose) (HPC)) was 106 % of control and the T/C (dose: 18.75 mg/kg/injection, schedule: Q01DX009 (ip), vehicle: Klucel (hydroxypropylcellulose) (HPC)) was 106 % of control. The T/C (dose: 37.5 mg/kg/injection, schedule: Q01DX009 (ip), vehicle: Klucel (hydroxypropylcellulose) (HPC)) was 111 % of control, the T/C (dose: 75.0 mg/kg/injection, schedule: Q01DX009 (ip), vehicle: Klucel (hydroxypropylcellulose) (HPC)) was 106 % of control and the T/C (dose: 150.0 mg/kg/injection, schedule: Q01DX009 (ip), vehicle: Klucel (hydroxypropylcellulose) (HPC)) was 106 % of control.
With O=C1CSC(=O)CS1 the T/C [1] was 99 % of control and the T/C [2] was 93 % of control.
For CC[C@]12CN3CCc4c([nH]c5ccccc45)[C@@](C(=O)OC)(c4cc5c(cc4OC)N(C)[C@H]4[C@@](O)(C(=O)OC)[C@H](OC(C)=O)[C@]6(CC)C=CCN7CC[C@]54[C@@H]76)CC(C3)[C@H]1O2 (stereo partly specified), the T/C (dose: 0.5 mg/kg/injection, schedule: Q01DX009 (ip), vehicle: saline) was 155 % of control, the T/C (dose: 1.0 mg/kg/injection, schedule: Q01DX009 (ip), vehicle: saline) was 160 % of control and the T/C (dose: 1.5 mg/kg/injection, schedule: Q01DX009 (ip), vehicle: Klucel (hydroxypropylcellulose) (HPC)) was 124 % of control. For the same compound, the T/C (dose: 3.0 mg/kg/injection, schedule: Q01DX009 (ip), vehicle: Klucel (hydroxypropylcellulose) (HPC)) was 162 % of control, the T/C (dose: 3.0 mg/kg/injection, schedule: Q01DX009 (ip), vehicle: saline) was 180 % of control and the T/C (dose: 3.9 mg/kg/injection, schedule: Q01DX009 (ip), vehicle: saline) was 160 % of control. For the same compound, the T/C (dose: 6.0 mg/kg/injection, schedule: Q01DX009 (ip), vehicle: Klucel (hydroxypropylcellulose) (HPC)) was 170 % of control and 171 % of control, the T/C (dose: 6.0 mg/kg/injection, schedule: Q01DX009 (ip), vehicle: saline with Tween-80) was 225 % of control and the T/C (dose: 6.0 mg/kg/injection, schedule: Q01DX009 (ip), vehicle: saline) was 234 % of control and 200 % of control. For the same compound, the T/C (dose: 9.0 mg/kg/injection, schedule: Q01DX009 (ip), vehicle: saline with Tween-80) was 95 % of control, the T/C (dose: 9.0 mg/kg/injection, schedule: Q01DX009 (ip), vehicle: saline) was 252 % of control and the T/C (dose: 12.0 mg/kg/injection, schedule: Q01DX009 (ip), vehicle: Klucel (hydroxypropylcellulose) (HPC)) was 186 % of control and 216 % of control. The T/C (dose: 12.0 mg/kg/injection, schedule: Q01DX009 (ip), vehicle: saline) was 240 % of control, the T/C (dose: 5.0 micrograms/kg/injection, schedule: Q01DX009 (ip), vehicle: saline) was 104 % of control and the T/C (dose: 10.0 micrograms/kg/injection, schedule: Q01DX009 (ip), vehicle: saline) was 109 % of control. For the same compound, the T/C (dose: 30.0 micrograms/kg/injection, schedule: Q01DX009 (ip), vehicle: saline) was 109 % of control, the T/C (dose: 60.0 micrograms/kg/injection, schedule: Q01DX009 (ip), vehicle: saline) was 100 % of control and the T/C (dose: 120.0 micrograms/kg/injection, schedule: Q01DX009 (ip), vehicle: saline) was 95 % of control.
For CNc1ncnc2nc(OC)[nH]c12, the T/C (dose: 0.78 mg/kg/injection, schedule: Q01DX009 (ip), vehicle: saline with Tween-80) was 95 % of control, the T/C [3] was 100 % of control and the T/C (dose: 3.13 mg/kg/injection, schedule: Q01DX009 (ip), vehicle: saline with Tween-80) was 98 % of control. The T/C (dose: 6.25 mg/kg/injection, schedule: Q01DX009 (ip), vehicle: saline with Tween-80) was 101 % of control.
For Clc1cccc(-c2nc3ccccc3c3ccccc23)c1, the T/C [2] was 105 % of control, the T/C [4] was 120 % of control and the T/C [5] was 95 % of control.
In the case of CN(C)N=Nc1ccc(CCCC(=O)NN)cc1, the T/C [3] is reported as 109 % of control, the T/C [6] is reported as 120 % of control and the T/C (dose: 25.0 mg/kg/injection, schedule: Q01DX009 (ip), vehicle: saline with Tween-80) is reported as 92 % of control. The T/C (dose: 50.0 mg/kg/injection, schedule: Q04DX003 (ip), vehicle: saline sonified) was 100 % of control, the T/C [2] was 100 % of control and the T/C (dose: 100.0 mg/kg/injection, schedule: Q04DX003 (ip), vehicle: saline sonified) was 115 % of control. The T/C (dose: 200.0 mg/kg/injection, schedule: Q04DX003 (ip), vehicle: saline sonified) was 110 % of control.
For O=C(Nc1cccc2cccnc12)C12CC3CC(CC(C3)C1)C2, the T/C [1] was 96 % of control, the T/C [2] was 96 % of control and the T/C [4] was 100 % of control.
For COc1ccc2c(c1)C1CN(Cc3ccccc31)C2 (stereo unspecified), the T/C (dose: 50.0 mg/kg/injection, schedule: Q01DX001 (ip), vehicle: saline with Tween-80) was 96 % of control, the T/C (dose: 100.0 mg/kg/injection, schedule: Q01DX001 (ip), vehicle: saline with Tween-80) was 99 % of control and the T/C (dose: 200.0 mg/kg/injection, schedule: Q01DX001 (ip), vehicle: saline with Tween-80) was 89 % of control.
For O=S(=O)(c1ccccc1)N1C2=CCCC3CCCCC23c2ccccc21 (stereo unspecified), the T/C (dose: 100.0 mg/kg/injection, schedule: Q04DX002 (ip), vehicle: saline with Tween-80) was 95 % of control, the T/C (dose: 200.0 mg/kg/injection, schedule: Q04DX002 (ip), vehicle: saline with Tween-80) was 92 % of control and the T/C (dose: 400.0 mg/kg/injection, schedule: Q04DX002 (ip), vehicle: saline with Tween-80) was 92 % of control.
With CS(=O)CC(O)(c1ccc(F)cc1)C1CC1 (stereo unspecified) the T/C [1] was 99 % of control and the T/C [2] was 103 % of control.
For CC(C)(C)c1cc2c3c(c1)C(C)(C)OS3(C)(=O)OC2(C)C, the T/C (dose: 12.5 mg/kg/injection, schedule: Q04DX002 (ip), vehicle: saline with Tween-80) was 93 % of control, the T/C (dose: 25.0 mg/kg/injection, schedule: Q04DX002 (ip), vehicle: saline with Tween-80) was 107 % of control and the T/C (dose: 50.0 mg/kg/injection, schedule: Q04DX002 (ip), vehicle: saline with Tween-80) was 97 % of control and 98 % of control.
CCOC(=O)CCN1CCOCC1 was tested, and the T/C (dose: 100.0 mg/kg/injection, schedule: Q01DX009 (ip), vehicle: saline) was 100 % of control, the T/C [7] was 95 % of control and the T/C (dose: 200.0 mg/kg/injection, schedule: Q01DX009 (ip), vehicle: saline) was 100 % of control. For the same compound, the T/C [8] was 100 % of control, the T/C (dose: 400.0 mg/kg/injection, schedule: Q01DX009 (ip), vehicle: saline) was 100 % of control and the T/C [9] was 108 % of control.
In the case of O=C(/C=C/c1ccc(OCc2ccccc2)cc1)c1cccc(Br)c1, the T/C [1] is reported as 89 % of control, the T/C [2] is reported as 100 % of control and the T/C [4] is reported as 91 % of control.
COC(=O)c1cc(Cl)nc2nc(Cl)nc(Cl)c12 was tested, and the T/C (dose: 50.0 mg/kg/injection, schedule: Q01DX009 (ip), vehicle: DMSO) was 114 % of control, the T/C (dose: 100.0 mg/kg/injection, schedule: Q01DX009 (ip), vehicle: DMSO) was 112 % of control and the T/C (dose: 200.0 mg/kg/injection, schedule: Q01DX009 (ip), vehicle: DMSO) was 102 % of control.
CCCCOB(OCCCC)Oc1c(C(C)(C)C)cccc1C(C)(C)C was tested, and the T/C [7] was 100 % of control, the T/C [8] was 112 % of control and the T/C [9] was 108 % of control.
c1ccc(-c2nn(-c3ccccc3)[n+](-c3cccc4ccccc34)n2)cc1 was tested, and the T/C [6] was 103 % of control and the T/C (dose: 4.0 mg/kg/injection, schedule: Q01DX009 (ip), vehicle: saline with Tween-80) was 112 % of control.
For Cc1ccc(C2NC(=O)c3ccccc3N2)s1 (stereo unspecified), the T/C [10] was 107 % of control and 113 % of control.
With COc1cc(/C(C)=N\O)ccc1O the T/C (dose: 100.0 mg/kg/injection, schedule: Q01DX001 (ip), vehicle: other) was 100 % of control, the T/C (dose: 200.0 mg/kg/injection, schedule: Q01DX001 (ip), vehicle: other) was 100 % of control and the T/C (dose: 400.0 mg/kg/injection, schedule: Q01DX001 (ip), vehicle: other) was 100 % of control.
COc1ccccc1/C=N\NC(C)=O was tested, and the T/C (dose: 25.0 mg/kg/injection, schedule: Q01DX009 (ip), vehicle: Klucel (hydroxypropylcellulose) (HPC)) was 96 % of control, the T/C (dose: 25.0 mg/kg/injection, schedule: Q04DX003 (ip), vehicle: Klucel (hydroxypropylcellulose) (HPC)) was 86 % of control and the T/C [10] was 107 % of control. For the same compound, the T/C (dose: 100.0 mg/kg/injection, schedule: Q01DX009 (ip), vehicle: Klucel (hydroxypropylcellulose) (HPC)) was 92 % of control and the T/C (dose: 100.0 mg/kg/injection, schedule: Q04DX003 (ip), vehicle: Klucel (hydroxypropylcellulose) (HPC)) was 86 % of control.
In the case of O=C(Cn1ccc(O)cc1=O)c1ccco1, the T/C [2] is reported as 100 % of control, the T/C (dose: 100.0 mg/kg/injection, schedule: Q04DX003 (ip), vehicle: saline with Tween-80) is reported as 100 % of control and the T/C [4] is reported as 95 % of control. For the same compound, the T/C (dose: 200.0 mg/kg/injection, schedule: Q04DX003 (ip), vehicle: saline with Tween-80) was 109 % of control, the T/C [5] was 104 % of control and the T/C (dose: 400.0 mg/kg/injection, schedule: Q04DX003 (ip), vehicle: saline with Tween-80) was 104 % of control.
